Each structure is given as a SMILES string. Activity calls are given as the source filed them.

Common to all, as to format: functional
One test deals with Aurora kinase B (Homo sapiens, UniProt Q96GD4).
For test [1], the target named is T1, Serine/threonine-protein kinase D3 (Homo sapiens, UniProt O94806).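 Note: determined within a kinase panel screen, with PRKCN as the panel member.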
T1 sequence (O94806 whole entry): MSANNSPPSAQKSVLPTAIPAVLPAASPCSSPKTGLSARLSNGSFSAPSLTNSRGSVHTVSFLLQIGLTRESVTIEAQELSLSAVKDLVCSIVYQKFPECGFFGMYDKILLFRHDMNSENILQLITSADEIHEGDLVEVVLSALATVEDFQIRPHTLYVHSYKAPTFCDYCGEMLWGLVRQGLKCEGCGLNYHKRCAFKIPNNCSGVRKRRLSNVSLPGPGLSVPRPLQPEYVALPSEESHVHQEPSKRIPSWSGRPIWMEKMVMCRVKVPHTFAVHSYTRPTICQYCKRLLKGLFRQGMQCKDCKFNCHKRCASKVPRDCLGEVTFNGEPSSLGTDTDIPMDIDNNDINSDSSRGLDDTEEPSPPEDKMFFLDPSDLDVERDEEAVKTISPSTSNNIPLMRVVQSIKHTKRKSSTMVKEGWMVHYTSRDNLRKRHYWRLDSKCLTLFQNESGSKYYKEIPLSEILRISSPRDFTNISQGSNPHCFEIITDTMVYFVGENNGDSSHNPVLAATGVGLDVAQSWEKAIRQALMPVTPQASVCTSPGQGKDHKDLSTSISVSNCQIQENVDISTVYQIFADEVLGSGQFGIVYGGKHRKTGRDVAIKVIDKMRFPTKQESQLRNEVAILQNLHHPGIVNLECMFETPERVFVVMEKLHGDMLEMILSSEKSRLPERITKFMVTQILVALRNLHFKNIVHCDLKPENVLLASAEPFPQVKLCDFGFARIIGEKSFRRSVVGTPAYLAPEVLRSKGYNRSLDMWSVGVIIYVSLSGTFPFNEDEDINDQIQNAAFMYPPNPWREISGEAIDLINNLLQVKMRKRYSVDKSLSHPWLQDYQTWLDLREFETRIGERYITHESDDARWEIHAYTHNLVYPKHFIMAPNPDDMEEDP

In test [2] the target is Tyrosine-protein kinase BTK (Homo sapiens, UniProt Q06187).
Test [3] addresses 5'-AMP-activated protein kinase catalytic subunit alpha-1 (Homo sapiens, UniProt Q13131).
Test [4] concerns the target Mitogen-activated protein kinase 8 (Homo sapiens, UniProt P45983).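 Note: value comes from one member of a kinome-wide kinase profiling panel.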
Test [5] has as its target BDNF/NT-3 growth factors receptor (Homo sapiens, UniProt Q16620).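 Note: NTRK2 measured as one member of a broad kinome-wide kinase profiling panel.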
Test [6] has as its target Ribosomal protein S6 kinase alpha-3 (Homo sapiens, UniProt P51812).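 Note: measured within a kinome-wide profiling panel.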
In a further test the target is LIM domain kinase 1 (Homo sapiens, UniProt P53667). Nature of the test: Navigating the Kinome. Panel member name: LIMK1.
Test [7] concerns the target Dual specificity mitogen-activated protein kinase kinase 2 (Homo sapiens, UniProt P36507). Nature of the test: Navigating the Kinome. Panel member name: MAP2K2.
In test [8] the target is T2, Tyrosine-protein kinase JAK3 (Homo sapiens, UniProt P52333).
T2 sequence (P52333 whole entry): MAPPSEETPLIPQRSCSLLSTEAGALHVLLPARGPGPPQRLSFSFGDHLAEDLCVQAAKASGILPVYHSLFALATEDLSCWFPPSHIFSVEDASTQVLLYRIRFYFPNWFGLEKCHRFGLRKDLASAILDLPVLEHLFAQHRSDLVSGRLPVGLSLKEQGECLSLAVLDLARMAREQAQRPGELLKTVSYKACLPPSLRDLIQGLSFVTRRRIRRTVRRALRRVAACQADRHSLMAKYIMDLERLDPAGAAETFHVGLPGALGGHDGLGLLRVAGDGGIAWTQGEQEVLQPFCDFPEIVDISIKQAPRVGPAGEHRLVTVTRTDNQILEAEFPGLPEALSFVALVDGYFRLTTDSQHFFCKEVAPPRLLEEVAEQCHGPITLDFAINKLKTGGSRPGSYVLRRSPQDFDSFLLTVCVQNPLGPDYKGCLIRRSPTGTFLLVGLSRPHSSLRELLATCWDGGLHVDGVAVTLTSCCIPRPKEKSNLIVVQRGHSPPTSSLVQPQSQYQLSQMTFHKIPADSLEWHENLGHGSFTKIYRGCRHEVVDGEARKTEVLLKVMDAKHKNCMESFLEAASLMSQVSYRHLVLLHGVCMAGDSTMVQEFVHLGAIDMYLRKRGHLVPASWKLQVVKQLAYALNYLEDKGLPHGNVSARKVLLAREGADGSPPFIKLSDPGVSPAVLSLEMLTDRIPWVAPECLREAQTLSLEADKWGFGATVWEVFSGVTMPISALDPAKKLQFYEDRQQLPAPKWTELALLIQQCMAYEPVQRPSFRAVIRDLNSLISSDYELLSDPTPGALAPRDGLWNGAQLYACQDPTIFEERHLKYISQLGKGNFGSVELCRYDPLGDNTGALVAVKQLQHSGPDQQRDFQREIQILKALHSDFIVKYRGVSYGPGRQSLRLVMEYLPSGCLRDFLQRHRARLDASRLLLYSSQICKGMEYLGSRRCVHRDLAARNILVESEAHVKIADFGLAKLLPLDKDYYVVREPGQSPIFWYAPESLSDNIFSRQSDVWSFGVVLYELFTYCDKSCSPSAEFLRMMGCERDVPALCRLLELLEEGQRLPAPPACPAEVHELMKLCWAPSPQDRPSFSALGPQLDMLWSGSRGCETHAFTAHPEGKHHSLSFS

Test [9] deals with Leukocyte tyrosine kinase receptor (Homo sapiens, UniProt P29376). Nature of the test: Navigating the Kinome. Panel member name: LTK.
Test [10] deals with ALK tyrosine kinase receptor (Homo sapiens, UniProt Q9UM73).
In test [11] the target is High affinity nerve growth factor receptor (Homo sapiens, UniProt P04629).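 Note: NTRK1 tested as one member of a kinome-wide profiling panel.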
Test [12] deals with T3, cAMP-dependent protein kinase catalytic subunit PRKX (Homo sapiens, UniProt P51817).
T3 sequence (P51817 whole entry): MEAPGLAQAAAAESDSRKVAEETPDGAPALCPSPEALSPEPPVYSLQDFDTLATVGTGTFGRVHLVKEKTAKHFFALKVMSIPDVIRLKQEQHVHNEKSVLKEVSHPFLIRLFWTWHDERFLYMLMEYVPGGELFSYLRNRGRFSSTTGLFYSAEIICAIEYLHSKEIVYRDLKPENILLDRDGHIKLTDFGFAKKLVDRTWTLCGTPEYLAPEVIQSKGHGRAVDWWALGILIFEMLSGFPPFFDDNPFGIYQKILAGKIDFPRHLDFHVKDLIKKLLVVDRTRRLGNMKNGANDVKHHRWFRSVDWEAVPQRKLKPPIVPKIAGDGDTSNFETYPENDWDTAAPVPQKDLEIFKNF

Chain of LIM domain kinase 1 (P53667 whole entry, the tested form may be a part): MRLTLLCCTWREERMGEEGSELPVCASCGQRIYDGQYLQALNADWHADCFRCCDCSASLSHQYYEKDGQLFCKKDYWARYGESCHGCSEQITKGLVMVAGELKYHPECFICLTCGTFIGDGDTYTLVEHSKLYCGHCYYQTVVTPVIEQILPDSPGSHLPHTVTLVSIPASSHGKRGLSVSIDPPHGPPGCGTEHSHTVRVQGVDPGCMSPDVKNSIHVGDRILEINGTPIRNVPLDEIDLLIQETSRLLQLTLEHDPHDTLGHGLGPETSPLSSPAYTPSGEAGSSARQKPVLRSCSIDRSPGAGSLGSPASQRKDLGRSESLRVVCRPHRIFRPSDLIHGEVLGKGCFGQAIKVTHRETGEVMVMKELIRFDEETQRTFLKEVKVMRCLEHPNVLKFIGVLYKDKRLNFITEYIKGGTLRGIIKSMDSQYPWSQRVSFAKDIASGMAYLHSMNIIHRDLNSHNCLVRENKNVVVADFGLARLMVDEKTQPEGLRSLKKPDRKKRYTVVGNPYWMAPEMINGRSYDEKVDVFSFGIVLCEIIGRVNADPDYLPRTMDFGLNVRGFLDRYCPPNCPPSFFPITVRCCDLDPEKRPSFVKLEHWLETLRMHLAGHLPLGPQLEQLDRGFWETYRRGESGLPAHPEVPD
Chain of ALK tyrosine kinase receptor (Q9UM73 whole entry): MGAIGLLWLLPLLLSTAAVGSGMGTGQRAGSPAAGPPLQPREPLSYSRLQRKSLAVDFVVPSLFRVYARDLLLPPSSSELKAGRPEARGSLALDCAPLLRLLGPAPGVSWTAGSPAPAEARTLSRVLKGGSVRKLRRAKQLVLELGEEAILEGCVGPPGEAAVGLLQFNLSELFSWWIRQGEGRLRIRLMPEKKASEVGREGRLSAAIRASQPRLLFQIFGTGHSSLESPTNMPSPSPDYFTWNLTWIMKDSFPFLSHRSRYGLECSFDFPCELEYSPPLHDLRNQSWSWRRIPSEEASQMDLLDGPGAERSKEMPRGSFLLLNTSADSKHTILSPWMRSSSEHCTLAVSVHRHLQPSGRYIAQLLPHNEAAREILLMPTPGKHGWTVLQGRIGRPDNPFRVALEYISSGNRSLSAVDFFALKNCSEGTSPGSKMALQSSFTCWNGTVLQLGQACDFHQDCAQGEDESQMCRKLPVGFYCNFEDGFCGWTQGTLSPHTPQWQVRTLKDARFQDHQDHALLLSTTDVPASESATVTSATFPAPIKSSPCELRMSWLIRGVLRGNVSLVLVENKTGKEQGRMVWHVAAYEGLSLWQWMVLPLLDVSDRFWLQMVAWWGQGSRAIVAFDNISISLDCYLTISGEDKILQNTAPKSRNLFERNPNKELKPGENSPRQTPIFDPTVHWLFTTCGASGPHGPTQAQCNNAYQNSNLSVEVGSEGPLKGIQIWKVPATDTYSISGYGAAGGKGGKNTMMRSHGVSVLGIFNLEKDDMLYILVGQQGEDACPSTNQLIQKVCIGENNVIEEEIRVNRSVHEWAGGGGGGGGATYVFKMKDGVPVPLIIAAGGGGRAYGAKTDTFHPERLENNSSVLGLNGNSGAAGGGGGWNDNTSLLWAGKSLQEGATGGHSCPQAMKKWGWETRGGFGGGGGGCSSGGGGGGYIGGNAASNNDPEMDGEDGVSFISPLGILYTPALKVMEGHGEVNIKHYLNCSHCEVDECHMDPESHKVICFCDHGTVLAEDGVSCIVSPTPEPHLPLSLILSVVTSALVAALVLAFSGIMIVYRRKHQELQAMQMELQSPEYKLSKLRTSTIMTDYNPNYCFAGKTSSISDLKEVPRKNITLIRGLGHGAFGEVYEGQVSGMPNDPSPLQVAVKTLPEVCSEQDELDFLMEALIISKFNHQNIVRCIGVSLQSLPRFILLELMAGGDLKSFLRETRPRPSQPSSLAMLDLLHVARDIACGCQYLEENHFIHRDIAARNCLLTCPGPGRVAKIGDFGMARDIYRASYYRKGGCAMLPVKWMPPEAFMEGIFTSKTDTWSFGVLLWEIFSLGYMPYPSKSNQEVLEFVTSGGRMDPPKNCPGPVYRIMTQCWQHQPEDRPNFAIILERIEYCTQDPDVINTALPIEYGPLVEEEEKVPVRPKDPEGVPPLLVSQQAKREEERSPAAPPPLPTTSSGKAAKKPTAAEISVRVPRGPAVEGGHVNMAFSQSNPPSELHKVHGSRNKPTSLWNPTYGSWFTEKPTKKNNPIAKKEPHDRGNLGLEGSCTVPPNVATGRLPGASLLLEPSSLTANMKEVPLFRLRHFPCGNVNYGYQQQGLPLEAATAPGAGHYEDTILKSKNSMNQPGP
Chain of Mitogen-activated protein kinase 8 (P45983 whole entry): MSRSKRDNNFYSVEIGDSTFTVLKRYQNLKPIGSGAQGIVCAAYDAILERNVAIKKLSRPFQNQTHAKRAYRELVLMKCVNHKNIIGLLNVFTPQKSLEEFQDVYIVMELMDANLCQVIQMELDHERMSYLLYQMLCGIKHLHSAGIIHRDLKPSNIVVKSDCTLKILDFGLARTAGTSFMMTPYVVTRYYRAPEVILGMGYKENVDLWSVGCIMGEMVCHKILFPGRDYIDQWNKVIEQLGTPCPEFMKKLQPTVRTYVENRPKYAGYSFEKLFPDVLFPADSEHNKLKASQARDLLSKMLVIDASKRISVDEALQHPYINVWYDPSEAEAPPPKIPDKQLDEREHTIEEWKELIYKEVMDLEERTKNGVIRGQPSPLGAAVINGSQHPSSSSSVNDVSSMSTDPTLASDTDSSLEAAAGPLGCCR
Chain of Tyrosine-protein kinase BTK (Q06187 whole entry): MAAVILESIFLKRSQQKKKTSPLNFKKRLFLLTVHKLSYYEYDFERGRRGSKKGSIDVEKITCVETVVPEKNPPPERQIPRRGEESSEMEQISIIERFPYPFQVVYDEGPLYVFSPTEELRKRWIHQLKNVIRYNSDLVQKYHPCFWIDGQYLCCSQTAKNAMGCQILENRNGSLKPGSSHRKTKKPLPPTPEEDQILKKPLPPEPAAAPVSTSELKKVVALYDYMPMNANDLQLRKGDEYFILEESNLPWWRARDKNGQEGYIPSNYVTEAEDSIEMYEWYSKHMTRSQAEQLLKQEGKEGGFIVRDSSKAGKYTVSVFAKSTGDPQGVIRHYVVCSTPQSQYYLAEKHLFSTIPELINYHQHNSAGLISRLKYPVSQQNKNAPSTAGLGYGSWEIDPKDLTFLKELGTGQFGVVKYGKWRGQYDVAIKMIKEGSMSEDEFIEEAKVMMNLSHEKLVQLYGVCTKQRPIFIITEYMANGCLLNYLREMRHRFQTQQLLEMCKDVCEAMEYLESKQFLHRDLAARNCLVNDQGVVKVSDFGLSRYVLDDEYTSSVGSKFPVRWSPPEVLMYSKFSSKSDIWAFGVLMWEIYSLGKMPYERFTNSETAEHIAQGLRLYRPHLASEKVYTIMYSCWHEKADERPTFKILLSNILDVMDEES
Chain of 5'-AMP-activated protein kinase catalytic subunit alpha-1 (Q13131 whole entry): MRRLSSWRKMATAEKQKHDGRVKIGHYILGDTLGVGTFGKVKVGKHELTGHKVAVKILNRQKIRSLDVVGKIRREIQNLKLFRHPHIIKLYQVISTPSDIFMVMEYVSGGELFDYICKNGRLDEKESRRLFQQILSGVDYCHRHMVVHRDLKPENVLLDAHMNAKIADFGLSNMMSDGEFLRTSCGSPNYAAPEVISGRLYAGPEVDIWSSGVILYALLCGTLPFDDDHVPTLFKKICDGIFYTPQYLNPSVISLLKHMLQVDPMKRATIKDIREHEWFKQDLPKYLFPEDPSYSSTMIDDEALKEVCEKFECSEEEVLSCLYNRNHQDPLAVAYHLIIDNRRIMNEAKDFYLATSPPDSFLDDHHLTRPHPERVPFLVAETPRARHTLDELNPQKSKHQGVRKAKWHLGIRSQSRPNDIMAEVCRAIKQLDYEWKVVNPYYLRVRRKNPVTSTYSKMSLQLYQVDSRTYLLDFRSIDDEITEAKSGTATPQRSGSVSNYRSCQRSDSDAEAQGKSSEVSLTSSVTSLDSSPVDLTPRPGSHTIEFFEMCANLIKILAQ
Chain of Aurora kinase B (Q96GD4 whole entry): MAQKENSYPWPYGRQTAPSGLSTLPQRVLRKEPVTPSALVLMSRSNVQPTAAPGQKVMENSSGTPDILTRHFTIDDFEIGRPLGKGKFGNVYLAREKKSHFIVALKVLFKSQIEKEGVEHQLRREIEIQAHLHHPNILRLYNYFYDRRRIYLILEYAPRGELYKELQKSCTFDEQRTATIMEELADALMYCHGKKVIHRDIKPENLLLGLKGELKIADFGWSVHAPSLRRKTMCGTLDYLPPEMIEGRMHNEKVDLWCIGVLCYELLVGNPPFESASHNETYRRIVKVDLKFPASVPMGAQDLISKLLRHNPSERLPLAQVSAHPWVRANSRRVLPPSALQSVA
Chain of Dual specificity mitogen-activated protein kinase kinase 2 (P36507 whole entry): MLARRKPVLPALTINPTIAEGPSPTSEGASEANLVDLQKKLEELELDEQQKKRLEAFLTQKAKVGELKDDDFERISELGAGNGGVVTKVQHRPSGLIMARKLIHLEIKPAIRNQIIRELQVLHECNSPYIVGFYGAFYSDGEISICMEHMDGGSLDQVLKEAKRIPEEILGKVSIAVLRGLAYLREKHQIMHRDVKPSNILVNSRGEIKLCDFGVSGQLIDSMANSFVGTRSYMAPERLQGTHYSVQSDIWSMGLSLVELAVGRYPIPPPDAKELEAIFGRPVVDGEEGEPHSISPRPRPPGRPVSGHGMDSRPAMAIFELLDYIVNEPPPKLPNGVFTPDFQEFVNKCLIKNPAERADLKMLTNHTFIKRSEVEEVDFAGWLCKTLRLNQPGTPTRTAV

As for `Cc1ccc(C)c(NC(=O)c2cc(-c3ccco3)nc3ccccc23)c1`, the Ki (as a rule, the equilibrium dissociation constant of an inhibitor or competing ligand from its target) at Aurora kinase B is 3160 nM (active); in test [1], 1580 nM (active); in test [2] it was 3980 nM (active); in test [3], 2000 nM (active); in test [4], > 5010 nM (inactive); in test [5] it was > 3980 nM (inactive). Besides, the Ki in test [6] is 3160 nM (active); on LIM domain kinase 1 it was 316 nM (active); in test [7], 3160 nM (active); in test [8] it was > 5010 nM (inactive); in [9] it was 1000 nM (active); in test [10], > 6310 nM (inactive). Besides, the Ki in test [11] and in test [12] was 1000 nM (active) throughout.
Consider `CN1CCC(c2c(O)cc(O)c3c(=O)cc(-c4ccccc4Cl)oc23)C(O)C1` (stereo not drawn), for which the Ki at Aurora kinase B is > 5010 nM (inactive); in [1], 316 nM (active); in test [2] it was > 3980 nM (inactive); in test [3], > 2510 nM (inactive); in [4], > 3980 nM (inactive); in test [5], > 3980 nM (inactive). For the same molecule, the Ki in [6] was 1260 nM (active); on LIM domain kinase 1, > 3160 nM (inactive); in test [7], > 3980 nM (inactive); in [8] it was > 3980 nM (inactive); in test [9], 631 nM (active); in test [10], 631 nM (active). The Ki in test [11] was > 2510 nM (inactive); in test [12] it was > 3160 nM (inactive). In [10], the negative-log Ki (pKi) (in general, −log10 of the Ki, conventionally taken in molar units) amounted to 6.2.
For the molecule `COc1ccc(C2=NNc3cccc4c(OC)ccc2c34)cc1OC`, the Ki on Aurora kinase B is > 3980 nM (inactive); in [1], 398 nM (active); in test [2], 631 nM (active); in test [3] it was 794 nM (active); in test [4] it was > 5010 nM (inactive); in test [5] it was > 3980 nM (inactive). Besides, the Ki in test [6] was 1580 nM (active); at LIM domain kinase 1, 31.6 nM (active); in [7] it was > 3980 nM (inactive); in test [8] it was 251 nM (active); in test [9], 25.1 nM (active); in test [10], 1580 nM (active). Further, the values for the Ki in test [11] and in test [12] were > 3160 nM (inactive) and 398 nM (active), respectively.
